# Reference: US20230330112A1, “COMPOSITION AND TREATMENT FOR CANCER WITH MUTATIONS” (BRIDGE BIOTHERAPEUTICS, INC., priority 2022, published 2023)
# Experiment: Phase 1 study of Compound A for NSCLC, safety
# Type: in vivo, human
# Method: A first-in-human phase 1 study is ongoing to evaluate the safety of Compound A, including a dose-escalation phase to characterize dose-limiting toxicities (DLTs) (FIG. 6) and determine the recommended phase 2 dose (NCT04820023). Eligibility criteria included advanced-stage NSCLC with an activating EGFR mutation and disease progression on at least one prior EGFR inhibitor. A measurable lesion was required for exploratory evaluation of efficacy. Starting from 20 mg QD (once daily; every day), Compound A dose levels were escalated after evaluating dose-DLT relationships and toxicity probabilities during the first 21 days of dosing.
# All enrolled patients underwent ctDNA analysis (Guardant360, Guardant Health) at screening and every 6 weeks throughout treatment, which was compared to imaging at the same time points. Changes in allelic frequency were calculated as per the proprietary algorithm of Guardant Health (7). Intra-patient dose-escalation to the next dose level was allowed. Plasma samples were collected at prespecified time points at cycle 2, Day 1 following multiple doses (steady state) of Compound A in the dose-escalation cohorts, and the plasma concentrations were determined by a validated LC-MS/MS method with the LLOQ established at 1 ng/mL.
compound,measurement,setting,value
"COc1cc(N2CCC(N3CCN(C)CC3)CC2)ccc1Nc1ncc(Cl)c(Nc2ccccc2NS(C)(=O)=O)n1 [Compound A, N-(2-((5-chloro-2-((2-methoxy-4-(4-(4-methylpiperazin-1-yl)piperidin-1-yl)phenyl)amino)pyrimidin-4-yl)amino)phenyl)methanesulfonamide]","Anorexia, All grade, %",20 mg QD (N = 4),0%
same,"Anorexia, Grade ≥ 3, %",20 mg QD (N = 4),0%
same,"Any TEAE, All grade, %",20 mg QD (N = 4),75%
same,"Any TEAE, Grade ≥ 3, %",20 mg QD (N = 4),25%
same,"Constipation, All grade, %",20 mg QD (N = 4),0%
same,"Constipation, Grade ≥ 3, %",20 mg QD (N = 4),0%
same,"Diarrhea, All grade, %",20 mg QD (N = 4),0%
same,"Diarrhea, Grade ≥ 3, %",20 mg QD (N = 4),0%
same,"Dizziness, All grade, %",20 mg QD (N = 4),0%
same,"Dizziness, Grade ≥ 3, %",20 mg QD (N = 4),0%
same,"Dyspepsia, All grade, %",20 mg QD (N = 4),0%
same,"Dyspepsia, Grade ≥ 3, %",20 mg QD (N = 4),0%
same,"Nausea, All grade, %",20 mg QD (N = 4),0%
same,"Nausea, Grade ≥ 3, %",20 mg QD (N = 4),0%
same,"Neutropenia/Neutrophil count decreased, All grade, %",20 mg QD (N = 4),0%
same,"Neutropenia/Neutrophil count decreased, Grade ≥ 3, %",20 mg QD (N = 4),0%
same,"Platelet count decreased, All grade, %",20 mg QD (N = 4),0%
same,"Platelet count decreased, Grade ≥ 3, %",20 mg QD (N = 4),0%
same,"Serious TEAE, All grade, %",20 mg QD (N = 4),0%
same,"Serious TEAE, Grade ≥ 3, %",20 mg QD (N = 4),0%
same,"TEAE leading to Dose interruption, All grade, %",20 mg QD (N = 4),0%
same,"TEAE leading to Dose interruption, Grade ≥ 3, %",20 mg QD (N = 4),0%
same,"TEAE leading to Dose permanently discontinued, All grade, %",20 mg QD (N = 4),0%
same,"TEAE leading to Dose permanently discontinued, Grade ≥ 3, %",20 mg QD (N = 4),0%
same,"TEAE leading to Dose reduced, All grade, %",20 mg QD (N = 4),0%
same,"TEAE leading to Dose reduced, Grade ≥ 3, %",20 mg QD (N = 4),0%
same,"Vomiting, All grade, %",20 mg QD (N = 4),0%
same,"Vomiting, Grade ≥ 3, %",20 mg QD (N = 4),0%
same,"Anorexia, All grade, %",80 mg QD (N = 3),0%
same,"Anorexia, Grade ≥ 3, %",80 mg QD (N = 3),0%
same,"Any TEAE, All grade, %",80 mg QD (N = 3),67%
same,"Any TEAE, Grade ≥ 3, %",80 mg QD (N = 3),0%
same,"Constipation, All grade, %",80 mg QD (N = 3),33%
same,"Constipation, Grade ≥ 3, %",80 mg QD (N = 3),0%
same,"Diarrhea, All grade, %",80 mg QD (N = 3),0%
same,"Diarrhea, Grade ≥ 3, %",80 mg QD (N = 3),0%
same,"Dizziness, All grade, %",80 mg QD (N = 3),0%
same,"Dizziness, Grade ≥ 3, %",80 mg QD (N = 3),0%
same,"Dyspepsia, All grade, %",80 mg QD (N = 3),33%
same,"Dyspepsia, Grade ≥ 3, %",80 mg QD (N = 3),0%
same,"Nausea, All grade, %",80 mg QD (N = 3),0%
same,"Nausea, Grade ≥ 3, %",80 mg QD (N = 3),0%
same,"Neutropenia/Neutrophil count decreased, All grade, %",80 mg QD (N = 3),0%
same,"Neutropenia/Neutrophil count decreased, Grade ≥ 3, %",80 mg QD (N = 3),0%
same,"Platelet count decreased, All grade, %",80 mg QD (N = 3),0%
same,"Platelet count decreased, Grade ≥ 3, %",80 mg QD (N = 3),0%
same,"Serious TEAE, All grade, %",80 mg QD (N = 3),0%
same,"Serious TEAE, Grade ≥ 3, %",80 mg QD (N = 3),0%
same,"TEAE leading to Dose interruption, All grade, %",80 mg QD (N = 3),0%
same,"TEAE leading to Dose interruption, Grade ≥ 3, %",80 mg QD (N = 3),0%
same,"TEAE leading to Dose permanently discontinued, All grade, %",80 mg QD (N = 3),0%
same,"TEAE leading to Dose permanently discontinued, Grade ≥ 3, %",80 mg QD (N = 3),0%
same,"TEAE leading to Dose reduced, All grade, %",80 mg QD (N = 3),0%
same,"TEAE leading to Dose reduced, Grade ≥ 3, %",80 mg QD (N = 3),0%
same,"Vomiting, All grade, %",80 mg QD (N = 3),33%
same,"Vomiting, Grade ≥ 3, %",80 mg QD (N = 3),0%
same,"Anorexia, All grade, %",160 mg QD (N = 4),0%
same,"Anorexia, Grade ≥ 3, %",160 mg QD (N = 4),0%
same,"Any TEAE, All grade, %",160 mg QD (N = 4),75%
same,"Any TEAE, Grade ≥ 3, %",160 mg QD (N = 4),0%
same,"Constipation, All grade, %",160 mg QD (N = 4),25%
same,"Constipation, Grade ≥ 3, %",160 mg QD (N = 4),0%
same,"Diarrhea, All grade, %",160 mg QD (N = 4),0%
same,"Diarrhea, Grade ≥ 3, %",160 mg QD (N = 4),0%
same,"Dizziness, All grade, %",160 mg QD (N = 4),0%
same,"Dizziness, Grade ≥ 3, %",160 mg QD (N = 4),0%
same,"Dyspepsia, All grade, %",160 mg QD (N = 4),0%
same,"Dyspepsia, Grade ≥ 3, %",160 mg QD (N = 4),0%
same,"Nausea, All grade, %",160 mg QD (N = 4),25%
same,"Nausea, Grade ≥ 3, %",160 mg QD (N = 4),0%
same,"Neutropenia/Neutrophil count decreased, All grade, %",160 mg QD (N = 4),0%
same,"Neutropenia/Neutrophil count decreased, Grade ≥ 3, %",160 mg QD (N = 4),0%
same,"Platelet count decreased, All grade, %",160 mg QD (N = 4),0%
same,"Platelet count decreased, Grade ≥ 3, %",160 mg QD (N = 4),0%
same,"Serious TEAE, All grade, %",160 mg QD (N = 4),25%
same,"Serious TEAE, Grade ≥ 3, %",160 mg QD (N = 4),0%
same,"TEAE leading to Dose interruption, All grade, %",160 mg QD (N = 4),0%
same,"TEAE leading to Dose interruption, Grade ≥ 3, %",160 mg QD (N = 4),0%
same,"TEAE leading to Dose permanently discontinued, All grade, %",160 mg QD (N = 4),0%
same,"TEAE leading to Dose permanently discontinued, Grade ≥ 3, %",160 mg QD (N = 4),0%
same,"TEAE leading to Dose reduced, All grade, %",160 mg QD (N = 4),0%
same,"TEAE leading to Dose reduced, Grade ≥ 3, %",160 mg QD (N = 4),0%
same,"Vomiting, All grade, %",160 mg QD (N = 4),25%
same,"Vomiting, Grade ≥ 3, %",160 mg QD (N = 4),0%
same,Treatment-related adverse events of grade ≥3,320 mg QD,occurred
same,"Anorexia, All grade, %",320 mg QD (N = 3),33%
same,"Anorexia, Grade ≥ 3, %",320 mg QD (N = 3),0%
